Experimental data: patent US12115156B2, “Compositions of CXCR4 inhibitors and methods of preparation and use” (X4 Pharmaceuticals, Inc., priority 2018, dated 2024)

What was measured:
[1] = Persistence of the imine impurity HPLC-MS peak in acidic aqueous media; assay type: physicochemical; settings: X4P-001 solubilized in acidic aqueous media
Text: The imine impurity, I-1, and likely route of formation are shown in Scheme 1, below.

[2] = Mutagenic Risk Assessment in accordance with ICH M7(R1); settings: impurities in the synthetic process for X4P-001
Experimental: The assessment included review of all raw materials, including key starting materials, as well as the potential and actual process impurities and degradation products. All assessments were carried out in accordance with ICH M7(R1) guidance.

[3] = in vivo
[4] = in vivo; settings: terminal half-life
[5] = tested on: advanced clear-cell renal cell carcinoma; settings: cited from earlier work; for objective response rate: nivolumab 3 mg/kg intravenously every two weeks or everolimus 10 mg tablet orally daily, previously treated patients, P<0.001
[6] = nivolumab compared to everolimus

C=NCCCCN(Cc1nc2ccccc2[nH]1)[C@H]1CCCc2cccnc21 [I-1, (S)-N-((1H-benzo[d]imidazol-2-yl)methyl)-N-(4-(methyleneamino)butyl)-5,6,7,8-tetrahydroquinolin-8-amine]
stability of the impurity peak (RRT 1.13) [1]: disappears after a few hours

ClCc1nc2ccccc2[nH]1 [I-8, 2-chloromethylbenzimidazole]
mutagenicity assessment [2]: potentially mutagenic

CC(C)(C)OC(=O)n1c(CCl)nc2ccccc21 [I-9, boc-2-chloromethylbenzimidazole]
mutagenicity assessment [2]: potentially mutagenic

ICc1nc2ccccc2[nH]1 [I-10]
mutagenicity assessment [2]: potentially mutagenic

CC(C)(C)OC(=O)n1c(CI)nc2ccccc21 [I-11]
mutagenicity assessment [2]: potentially mutagenic

NCCCCN(Cc1nc2ccccc2[nH]1)[C@H]1CCCc2cccnc21 [X4P-001]
terminal half-life [3]: approximately 14.5 hrs | half-life [4]: 720 to 1440 min

CO[C@H]1C[C@@H]2CC[C@@H](C)[C@@](O)(O2)C(=O)C(=O)N2CCCC[C@H]2C(=O)O[C@H]([C@H](C)C[C@@H]2CC[C@@H](OCCO)[C@H](OC)C2)CC(=O)[C@H](C)/C=C(\C)[C@@H](O)[C@@H](OC)C(=O)[C@H](C)C[C@H](C)/C=C/C=C/C=C/1C [everolimus]
objective response rate [5]: 5%

nivolumab: fully human IgG4 monoclonal antibody binding to the programmed cell death 1 (PD-1) receptor
objective response rate [5]: 25% | hazard ratio for death [5, 6]: decreased | incidence of Grade 3 or 4 treatment-related adverse events [5, 6]: lower | median overall survival [5, 6]: longer
